In patent US20220064167A1, “IMIDAZO-PYRAZOLE CARBOXAMIDE DERIVATIVES AS ANTICANCER AGENTS AND THE SYNTHESIS THEREOF” (AVIDIN KFT., priority 2018, published 2022):

How the values were obtained:
[1] = system: pAkt (Ser473) in HL-60 cells; assay: flow cytometry of pAkt bright cells (FIG. 2B); assay type: cell-based, human; conditions: HL-60, 40 nM, 200 nM and 1 μM
Method: (§1) Human promyelocytic leukemia HL60 Cells (500,000/well) were plated in 24-well tissue culture plates (Corning Life Sciences) in RPMI 10% FCS (Gibco) and were treated with the compounds described in Example 60 and 83 at 40 nM, 200 nM and 1 μM concentrations in 500 μl media. After 24 h incubation time cells with the corresponding supernatants were harvested and centrifuged down (2000 rpm, 5 min).
(§2) Pellets were resuspended and fixed in 3.5% PBS buffered formaldehyde (Molar Chemicals) for 10 minutes. Cells were washed with FACS-buffer (2% FCS, (Gibco) in PBS), centrifuged down (2000 rpm, 5 min). Cells were permeabilized in Permeability buffer (1% FCS, 0.1% saponin (Sigma-Aldrich) in PBS pH 7.4) for 5 minutes. Cells were washed with FACS buffer (2% FCS, (Gibco) in PBS), centrifuged (2000 rpm, 5 min). The following primary antibodies were used: Bcl-xl-Alexa 488, (Cell Signaling, cat. numb. 2767S), dilution 1:75, 24 h; pAkt-Alexa Fluor 488, (Ser473), (Cell Signaling, cat. numb, 4071), dilution 1:50, 24 or 72h; After incubation for 1h at 4° C. samples were washed two times with FACS buffer. […] In order to calculate the signal to noise ratio mean fluorescent intensity (MFI) was calculated by the following equation: =POWER(10; (Medianstained−Median unstained, untreated)/Chd), where Chd means 256, the number of channels per decade (Fajka-Boja et al. 2002; Sharrow 2001) in Microsoft Excel. […]

[2] = system: active caspase-3 in HL-60 cells; assay: caspase-3 activation by flow cytometric immunofluorescence (FIG. 5); assay type: cell-based, human; conditions: HL-60, FIG. 5
Method: as §1, §2

[3] = system: GBM2 (human glioblastoma); assay: viability assay (Table 2); assay type: cell-based
Method: (§3) For viability assays cells were seeded in 96 well plates (MCF7 and 4T1: 6000, HL60: 120.000 cells/well) and incubated overnight. Compounds were dissolved in dimethyl sulfoxide (DMSO). Cells were treated with an increasing concentration of compounds having the general formula (I.) (156 nM-100 μM). Cell viability was determined after 72h incubation. Resazurin reagent (Sigma-Aldrich) was dissolved in PBS (pH 7.4) at 0.15 mg/ml concentration, sterile filtered (0.22 μm, Merck Millipore) and aliquoted at −20° C. Resazurin reagent (Sigma-Aldrich) was added at a final concentration of 25 μg/ml. After 2 hours incubation at 37° C. 5% CO2 fluorescence (530 nm excitation/580 nm emission) was recorded on a multimode microplate reader (Cytofluor4000, PerSeptive Biosytems). Viability was calculated with relation to untreated control cells and blank wells containing media without cells. IC50 values (50% inhibiting concentration) were calculated by GraphPad Prism® 5 (La Jolla, Calif., USA).
(§4) GBM2 (human glioblastoma), HeLa (human cervical carcinoma), MIA PaCa-2 (human pancreas carcinoma) and U87MG (human glioblastoma) cells were maintained in Dulbecco's Modified Eagle Medium (DMEM) 10% fetal calf serum (FCS, Gibco). A375 (human melanoma), A549 (human lung adenocarcinoma) and HEP3B (human hepatoma) cells were maintained in Dulbecco's Modified Eagle Medium/Nutrient Mixture F-12 (DMEM/F12) 10% FCS.
(§5) Media were supplemented with 2 mM GlutaMAX, and 100 U/mL penicillin, 100 μg/mL streptomycin (Life Technologies, Carlsbad, Calif., USA). Cell cultures were maintained at 37° C. in a humidified incubator in an atmosphere of 5% CO2 (Sanyo, Japan).
(§6) Viability assays were performed as described in Example 102.

[4] = system: MIA PaCa-2 (human pancreas carcinoma); assay: viability assay (Table 2); assay type: cell-based
Method: as §3, §4, §5, §6

[5] = system: A549 (human lung adenocarcinoma); assay: viability assay (Table 2); assay type: cell-based
Method: as §3, §4, §5, §6

[6] = system: HL-60 cells; assay: Annexin V / propidium iodide apoptosis assay (FIG. 4); assay type: cell-based, human; conditions: HL-60, 40 nM, 200 nM and 1 μM, 24 h
Method: Cells (200,000/well) were plated in 24-well tissue culture plates (Corning Life Sciences) and treated with the compounds described in Example 60 and 83 at 40 nM, 200 nM and 1 μM concentrations in 500 μl media. After 24 h cells were harvested with the corresponding supernatant and centrifuged down (2000 rpm, 5 min). Pellets were resuspended in Annexin V binding buffer (0.01 M HEPES, 0.14 M NaCl and 2.5 mM CaCl2). Annexin V-Alexa Fluor® 488 (Life Technologies, 2.5:100) was added to the cells, which were then kept for 15 min in the dark at room temperature. Before the acquisition propidium iodide (10 μg/ml, Sigma-Aldrich) was added in Annexin V binding buffer to dilute Annexin V-Alexa Fluor® 488 5×. Cells (20.000 events) were analyzed on a FACSCalibur flow cytometer using CellQuest software (Becton Dickinson). The percentage of the FL1 (530/30 nm filter, Annexin V-Alexa Fluor® 488) positive and FL3 (670 nm filter, propidium iodide) negative early apoptotic cells and FL1 positive and FL3 positive late apoptotic cells were determined. The total apoptotic population included both early and late apoptotic cells. Column charts were created by GraphPad Prism® 5. Results are depicted in FIG. 4. […] We could detect AnnexinV^+/PI^− early and AnnexinV^+/PI^+ late apoptotic cell populations after 24 h of treatment.

[7] = system: HT29 (human colorectal adenocarcinoma); assay: viability assay (Table 2); assay type: cell-based; conditions: HT-29
Method: as §3
(§7) HT168 (human melanoma), HT199 (human melanoma), HT29 (human colorectal adenocarcinoma), MOLT4 (human leukemia) and U937 (human lymphoma) cells were maintained in Roswell Park Memorial Institute 1640 medium (RPMI-1640) 10% FCS. SKOV-3 cells were maintained in Dulbecco's Modified Eagle Medium/McCoy's medium (DMEM/McCoy) 10% FCS.
as §5, §6

[8] = system: HT168 (human melanoma); assay: viability assay (Table 2); assay type: cell-based
Method: as §3, §7, §5, §6

[9] = system: HT199 (human melanoma); assay: viability assay (Table 2); assay type: cell-based
Method: as §3, §7, §5, §6

CC(C)(C)Nc1c(C(C)(C)C)[nH]c2c(C(=O)Nc3ccc(F)cc3)cnn12 [Example 60, 2-(Tert-butyl)-N-(4-fluorophenyl)-3-((tert-butyl-2-yl)amino)-1H-imidazo[1,2-b]pyrazole-7-carboxamide] was tested. Which “percentage of the pAkt bright cells” value [1] did it give?
The value was “increase”.

What about the “percentage of active caspase-3 positive cells” value [2] of the same compound?
The value was “increased”.

What about the IC50 [3] of the same compound?
The IC50 was 250 nM.

What about the IC50 [4] of the same compound?
Its IC50 is 300 nM.

And the IC50 [5]?
The IC50 was 750 nM.

And the “AnnexinV+/PI- early and AnnexinV+/PI+ late apoptotic cell populations” value [6]?
Its value is “accompanied by apoptosis”.

And the IC50 [7]?
The IC50 was 250 nM.

And the IC50 [8]?
Its IC50 is 500 nM.

What about the IC50 [9] of the same compound?
Its IC50 is 300 nM.

Which results are given for CC(C)(C)Nc1c(C(C)(C)C)[nH]c2c(C(=O)Nc3ccc(N)cc3)cnn12 [Example 83, N-(4-Aminophenyl)-2-(tert-butyl)-3-(tert-butylamino)-1H-imidazo[1,2-b]pyrazole-7-carboxamide]?
percentage of the pAkt bright cells [1]: increase; percentage of active caspase-3 positive cells [2]: increased; IC50 [3]: 100 nM; IC50 [4]: 300 nM; IC50 [5]: 300 nM; AnnexinV+/PI- early and AnnexinV+/PI+ late apoptotic cell populations [6]: accompanied by apoptosis; IC50 [7]: 50 nM; IC50 [8]: 100 nM; IC50 [9]: 100 nM
